SMILES strings stand for the structures.

The first test has as its target T1, USP28 (His-tagged USP28-FL-mammalian) (Homo sapiens, UniProt Q96RU2).
T1 construct: Expression of USP28 (1-1077)-TEV-6*His (pTT5 vector) was carried out in Expi293f cells; made in house; host or cells: Expi293F cells (pTT5 vector)
T1 sequence (Q96RU2 1-1077): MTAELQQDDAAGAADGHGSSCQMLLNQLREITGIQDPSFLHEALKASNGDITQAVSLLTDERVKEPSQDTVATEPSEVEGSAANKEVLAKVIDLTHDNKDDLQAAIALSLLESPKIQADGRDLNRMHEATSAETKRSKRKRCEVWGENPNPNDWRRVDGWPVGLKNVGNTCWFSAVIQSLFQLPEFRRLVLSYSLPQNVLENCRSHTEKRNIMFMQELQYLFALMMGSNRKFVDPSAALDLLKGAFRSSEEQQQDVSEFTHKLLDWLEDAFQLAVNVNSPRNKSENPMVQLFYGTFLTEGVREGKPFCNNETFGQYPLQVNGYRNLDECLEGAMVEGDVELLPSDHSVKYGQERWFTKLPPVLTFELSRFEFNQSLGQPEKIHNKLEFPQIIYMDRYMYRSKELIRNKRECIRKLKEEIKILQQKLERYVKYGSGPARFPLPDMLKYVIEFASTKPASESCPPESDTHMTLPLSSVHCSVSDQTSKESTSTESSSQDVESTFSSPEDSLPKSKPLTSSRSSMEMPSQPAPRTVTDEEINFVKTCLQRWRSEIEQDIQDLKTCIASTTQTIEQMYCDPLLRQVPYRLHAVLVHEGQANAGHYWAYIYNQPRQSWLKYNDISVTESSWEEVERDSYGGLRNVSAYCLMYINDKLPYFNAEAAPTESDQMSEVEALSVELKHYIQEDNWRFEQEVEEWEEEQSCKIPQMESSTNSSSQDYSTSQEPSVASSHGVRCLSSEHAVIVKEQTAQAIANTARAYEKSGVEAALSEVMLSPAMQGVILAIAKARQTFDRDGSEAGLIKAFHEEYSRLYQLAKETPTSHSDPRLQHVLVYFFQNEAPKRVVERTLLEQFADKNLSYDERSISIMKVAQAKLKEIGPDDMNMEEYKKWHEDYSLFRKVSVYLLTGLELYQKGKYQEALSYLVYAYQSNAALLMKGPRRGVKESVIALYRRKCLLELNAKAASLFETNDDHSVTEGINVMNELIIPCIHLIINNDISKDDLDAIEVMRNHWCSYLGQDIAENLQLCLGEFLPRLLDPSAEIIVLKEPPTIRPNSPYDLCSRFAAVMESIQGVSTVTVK
Kind of test: Ubiquitin-Rhodamine 110 Assay for USP28 Activity, Example A-1(a). Format: biochemical. Particulars: Ubiquitin-Rhodamine 110 biochemical assay, read-out: USP28 A-1(a) IC50 range. The procedure: Example A-1(a): Biochemical Assay: Ubiquitin-Rhodamine 110 Assay for USP28 Activity
The assay was performed in a final volume of 9 μL in assay buffer containing 20 mM Tris-HCl (pH 8.0, (1M Tris-HCl, pH 8.0 solution; Corning 46-031-CM)), 3 mM BME (2-Mercaptoethanol; Sigma 63689-25ML-F), 0.03% BGG (0.22 μM filtered, Sigma, G7516-25G), and 0.01% Triton X-100 (Sigma, T9284-10L). Nanoliter quantities of 10-point, 3-fold serial dilution in DMSO was pre-dispensed into 1536 assay plates (Corning, #3724BC) for a final test concentration of 25 μM to 1.3 nM, top to lowest dose, respectively. Enzyme USP28, construct His-tagged USP28-FL-mammalian, (protein expression and purification procedure described below). Concentration and incubation times were optimized for the maximal signal-to-background while maintaining initial velocity conditions at a fixed substrate concentration. The final concentration of the enzyme in the assay was […]. Final substrate (Ub-Rh110; Ubiquitin-Rhodamine 110, UbiQ-126) concentration was 25 nM with [Ub-Rh110]<<Km. 3 μL of 2× enzyme was added to assay plates (pre-stamped with compound) preincubated with […] for 30 minutes and then 3 μL of 2× Ub-Rh110 was added to assay plates. Plates were incubated for 45 minutes at room temperature before addition of 3 μL of stop solution (final concentration of 10 mM citric acid (Sigma, 251275-500G)). Fluorescence was read on the Envision (Excitation at 485 nm and Emission at 535 nm; Perkin Elmer) or on the PheraSTAR (Excitation at 485 nm and Emission at 535 nm; BMG Labtech).
Procedure for the Protein expression and purification for construct His-tagged USP28-FL-mammalian
Expression of USP28 (1-1077)-TEV-6*His (pTT5 vector) was carried out in Expi293f cells (sequence derived from uniprot ID: Q96RU2-1). Cells were re-suspended in lysis buffer B 50 mM Bicine, pH 8.0, 20 mM NaCl, 5% glycerol, 0.1% CHAPS, 5 mM β-ME, 1 mM PMSF, 1 ug/ml Leupeptin, 1 ug/ml Pepstatin) and lysed by sonication. Insoluble material was removed by centrifugation and the supernatant was loaded onto a Ni-NTA column (GE Healthcare) equilibrated with Ni Buffer A (50 mM Bicine, pH 8.0, 20 mM NaCl, 5% glycerol, 0.1% CHAPS, 5 mM R-ME.) and washed with Ni Buffer A+20 mM imidazole until A280 reached baseline. The protein was eluted with Ni Buffer B (50 mM Bicine, pH 8.0, 20 mM NaCl, 5% glycerol, 0.1% CHAPS, 5 mM β-ME, 300 mM imidazole.). The protein was further purified using a Superdex™ 200 10/300 GL column (GE Healthcare) equilibrated with 50 mM Bicine, pH 8.0, 20 mM NaCl, 5% glycerol, 0.1% CHAPS, 5 mM β-ME. The protein was concentrated to 2.5 mg ml-1, flash-frozen in liquid N2 and stored at −80° C.
For assay formats Example A-1(a), A-1(b), and A-2, data were reported as percent inhibition compared with control wells based on the following equation: % inh=1−((FLU−AveLow)/(AveHigh−AveLow)) where FLU=measured Fluorescence, AveLow=average Fluorescence of no enzyme control (n=16), and AveHighh=average Fluorescence of DMSO control (n=16). IC50 values were determined by curve fitting of the standard 4 parameter logistic fitting algorithm included in the Activity Base software package: IDBS XE Designer Model 205. Data is fitted using the Levenburg Marquardt algorithm.
With `CO[C@H]1CN(c2ccc3c(n2)CC[C@H](NC(=O)c2sc4nc(C)cnc4c2N)C3)C[C@H]1N` [Example 492, 7-amino-N-[(6S)-2-[(3R,4S)-3-amino-4-methoxypyrrolidin-1-yl]-5,6,7,8-tetrahydroquinolin-6-yl]-3-methylthieno[2,3-b]pyrazine-6-carboxamide], the IC50 lay within 0.05 to 0.2 µM.

In the case of `CN[C@@H]1CN(c2ccc3c(n2)CC[C@H](NC(=O)c2sc4nc(C)cnc4c2N)C3)C[C@@H]1OC` [Example 497, 7-amino-N-[(6S)-2-[(3S,4R)-3-methoxy-4-(methylamino)pyrrolidin-1-yl]-5,6,7,8-tetrahydroquinolin-6-yl]-3-methylthieno[2,3-b]pyrazine-6-carboxamide], the IC50 lay within 0.2 to 2 µM.

As to `Cc1ccc2c(N)c(C(=O)N[C@H]3CCc4nc(N5CC[C@]6(CCCN6)C5)ccc4C3)sc2n1` [Example 505, 3-amino-N-[(6S)-2-[(5R)-1,7-diazaspiro[4.4]nonan-7-yl]-5,6,7,8-tetrahydroquinolin-6-yl]-6-methylthieno[2,3-b]pyridine-2-carboxamide], the IC50 is 0.05 to 0.2 µM.

`CO[C@H]1CN(c2ccc3c(n2)CC[C@H](NC(=O)c2sc4cnccc4c2N)C3)C[C@@H]1N` [Example 504, 3-amino-N-[(6S)-2-[(3S,4S)-3-amino-4-methoxypyrrolidin-1-yl]-5,6,7,8-tetrahydroquinolin-6-yl]thieno[2,3-c]pyridine-2-carboxamide]: the IC50 is greater than 2 µM.

For `Cc1ccc2c(N)c(C(=O)N[C@H]3CCc4nc(N5C[C@@H](COC(F)(F)F)[C@@H](N)C5)ccc4C3)sc2n1` [Example 484, 3-amino-N-[(6S)-2-[(3R,4R)-3-amino-4-[(trifluoromethoxy)methyl]pyrrolidin-1-yl]-5,6,7,8-tetrahydroquinolin-6-yl]-6-methylthieno[2,3-b]pyridine-2-carboxamide], the IC50 fell in the range of 0.2 to 2 µM.

As to `CO[C@@H]1CCCN(c2ccc3c(n2)CC[C@H](NC(=O)c2sc4nc(C)ccc4c2N)C3)C[C@@H]1N` [Example 495, 3-amino-N-[(6S)-2-[(3S,4R)-3-amino-4-methoxyazepan-1-yl]-5,6,7,8-tetrahydroquinolin-6-yl]-6-methylthieno[2,3-b]pyridine-2-carboxamide], the IC50 is 0.05 to 0.2 µM.

In the case of `Cc1cnc2c(N)c(C(=O)N[C@H]3CCc4nc(N5C[C@H](N)C6(C5)OCCO6)ccc4C3)sc2n1` [Example 498, 7-amino-N-[(6S)-2-[(9S)-9-amino-1,4-dioxa-7-azaspiro[4.4]nonan-7-yl]-5,6,7,8-tetrahydroquinolin-6-yl]-3-methylthieno[2,3-b]pyrazine-6-carboxamide], the IC50 is 0.2 to 2 µM.

For `COC[C@@H]1CN(c2ccc3c(n2)CC[C@H](NC(=O)c2sc4nc(C)c(F)cc4c2N)C3)C[C@@H]1N` [Example 513, 3-amino-N-[(6S)-2-[(3R,4R)-3-amino-4-(methoxymethyl)pyrrolidin-1-yl]-5,6,7,8-tetrahydroquinolin-6-yl]-5-fluoro-6-methylthieno[2,3-b]pyridine-2-carboxamide], the IC50 fell in the range of 0.05 to 0.2 µM.

For `CO[C@@H]1CCCN(c2ccc3c(n2)CC[C@H](NC(=O)c2sc4nc(C)ccc4c2N)C3)C[C@H]1N` [Example 493, 3-amino-N-[(6S)-2-[(3R,4R)-3-amino-4-methoxyazepan-1-yl]-5,6,7,8-tetrahydroquinolin-6-yl]-6-methylthieno[2,3-b]pyridine-2-carboxamide], the IC50 lay within 0.001 to 0.05 µM.

Staying with this test, now noted: biochemical IC50 range, Ubiquitin-Rhodamine 110 assay, read-out: USP28 A-1(a).
Regarding `Cc1ccc2c(N)c(C(=O)N[C@H]3COc4cc(N5C[C@H](N)C6(C5)OCCO6)ccc4C3)sc2n1` [Example 681, 3-amino-N-[(3R)-7-[(9S)-9-amino-1,4-dioxa-7-azaspiro[4.4]nonan-7-yl]-3,4-dihydro-2H-1-benzopyran-3-yl]-6-methylthieno[2,3-b]pyridine-2-carboxamide], the IC50 was 0.001 to 0.05 µM.

Consider `CNc1ncc(C(=O)N[C@H]2COc3cc(N4CCNCC4)ccc3C2)c2c1CCCN2` [Example 677, 5-(methylamino)-N-[(3R)-7-(piperazin-1-yl)-3,4-dihydro-2H-1-benzopyran-3-yl]-1,2,3,4-tetrahydro-1,6-naphthyridine-8-carboxamide], for which the IC50 was in the range of 0.2 to 2 µM.

Turning to `Cc1ccc2c(N)c(C(=O)N[C@H]3COc4nc(N5C[C@H](N)C6(C5)OCCO6)ccc4C3)sc2n1` [Example 543, 3-amino-N-[(3R)-7-[(9S)-9-amino-1,4-dioxa-7-azaspiro[4.4]nonan-7-yl]-2H,3H,4H-pyrano[2,3-b]pyridin-3-yl]-6-methylthieno[2,3-b]pyridine-2-carboxamide], the IC50 is 0.2 to 2 µM.

Consider `Cc1ccc2c(N)c(C(=O)N[C@H]3COc4cc(N5C[C@H](N)[C@@]6(C5)OCC[C@H]6C)ccc4C3)sc2n1` [Example 612-2, 3-amino-N-[(3R)-7-[(4R,5R,9S)-9-amino-4-methyl-1-oxa-7-azaspiro[4.4]nonan-7-yl]-3,4-dihydro-2H-1-benzopyran-3-yl]-6-methylthieno[2,3-b]pyridine-2-carboxamide], for which the IC50 was 0.001 to 0.05 µM.

For the compound `CN[C@H]1CN(c2ccc3c(c2)OC[C@H](NC(=O)c2sc4nc(C)ccc4c2N)C3)C[C@H]1COC` [Example 679, 3-amino-N-[(3R)-7-[(3R,4R)-3-(methoxymethyl)-4-(methylamino)pyrrolidin-1-yl]-3,4-dihydro-2H-1-benzopyran-3-yl]-6-methylthieno[2,3-b]pyridine-2-carboxamide], the IC50 lay within 0.001 to 0.05 µM.

In the case of `Cc1ccc2c(N)c(C(=O)N[C@H]3COc4nc(N5C[C@@H](CF)[C@@H](N)C5)ccc4C3)sc2n1` [Example 539, 3-amino-N-[(3R)-7-[(3R,4R)-3-amino-4-(fluoromethyl)pyrrolidin-1-yl]-2H,3H,4H-pyrano[2,3-b]pyridin-3-yl]-6-methylthieno[2,3-b]pyridine-2-carboxamide], the IC50 is 0.05 to 0.2 µM.

The record behind these values is patent publication US12162888B2, “Carboxamides as ubiquitin-specific protease inhibitors” (Valo Early Discovery, Inc., priority 2018, dated 2024).
